In patent publication EP4755881A1 (Wuhan Createrna Science and Technology Co., Ltd., priority 2023, dated 2025):
Where two headings read alike, the source gives them in different places.

Columns and labels:
LPAR1 receptor = target: T1, LPAR1 receptor (Homo sapiens, UniProt Q92633); assay: LPAR1 in vitro biological activity evaluation 2: HTRF cAMP kit (LANCE Ultra cAMP Kit) assay in CHO stable transfected cell line expressing the LPAR1 receptor; format: cell-based; conditions: Table 2, read-out: LPAR1 inhibitory activity IC50
T1 construct: expressed in transfected cells
T1 sequence (Q92633 whole entry): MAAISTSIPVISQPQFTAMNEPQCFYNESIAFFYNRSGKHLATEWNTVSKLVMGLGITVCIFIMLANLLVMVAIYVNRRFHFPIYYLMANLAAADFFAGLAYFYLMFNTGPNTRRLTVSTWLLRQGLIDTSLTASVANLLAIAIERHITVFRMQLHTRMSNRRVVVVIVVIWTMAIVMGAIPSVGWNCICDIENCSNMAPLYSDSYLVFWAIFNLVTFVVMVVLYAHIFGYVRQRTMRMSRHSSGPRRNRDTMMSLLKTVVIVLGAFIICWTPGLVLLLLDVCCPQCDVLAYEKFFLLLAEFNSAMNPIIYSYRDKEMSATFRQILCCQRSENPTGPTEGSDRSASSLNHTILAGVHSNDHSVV
Procedure: The inhibitory effects of the compounds of the present disclosure on the LPAR1 receptor were determined using a Chinese hamster ovary (CHO) stable transfected cell line expressing the LPAR1 receptor, through the HTRF cAMP kit (LANCE® Ultra cAMP Kit).
The CHO cell line expressing the LPAR1 receptor was cultured in F-12 medium (Gibco, 117650054) containing 10% fetal bovine serum (FBS, Avantor, 76294-180) and 0.2 mg/mL hygromycin B (Solarbio, H8080-1g) at 37°C with 5% CO2. Cell passage, recovery, and cryopreservation were performed according to conventional methods. The stable transfected cell line was cultured to 80% confluence, digested with trypsin to collect cells, counted, and then seeded at 5 µL/well in a 384-well plate (500 cells/5 µL). The 1× Stimulation Buffer was prepared according to the instructions of the kit (LANCE® Ultra cAMP Kit). 1 µL of the test compound solution (diluted to 10× with 1× Stimulation Buffer) was added to the corresponding experimental wells, followed by centrifugation and incubation at 37°C for 10 minutes. […] 5 µL/well of Eu-cAMP (diluted with Detection buffer) was added to the corresponding experimental wells. 5 µL/well of ULight™-anti-cAMP antibody (diluted with Detection buffer) was added to the corresponding experimental wells, followed by centrifugation and incubation at room temperature for 1 hour. After the incubation was completed, the readings at 665 nm and 620 nm under 330 nm excitation were detected using the HTS high-throughput drug screening multifunctional microplate reader (BMG, PHERAstar FSX). The IC50 values were calculated by fitting nonlinear regression (dose response - variable slope) using GraphPad Prism software.

[1] = target: hLPAR1 (human lysophosphatidic acid receptor 1, Accession No.: NM_001401.4) (Homo sapiens, UniProt Q92633); assay: cell-based; conditions: FLIPR method, CHO-K1 cells overexpressing hLPAR1
hLPAR1 (human lysophosphatidic acid receptor 1, Accession No.: NM_001401.4), sequence (Q92633 whole entry): as above
How it was run: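 Antagonist mode in CHO-K1 cells stably expressing hLPAR1, Fluo-4 loaded; compound preincubated 30 min at room temperature before 1 µM oleoyl-LPA (final) challenge.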

[2] = Pharmacokinetic study in rats (oral gavage and tail vein injection, plasma LC-MS/MS); format: in vivo; conditions: rat; for Cmax: read-out: Cmax
Procedure: Male SPF-grade SD rats (Beijing Vital River Laboratory Animal Technology Co., Ltd.) with a body weight range of 200 to 250 g were used. After acclimatization, the rats were administered a clear solution of the compound of the present disclosure via oral gavage (Po, fasted overnight before administration with free access to water, food returned 4 hours after administration) and tail vein injection (Iv, free access to food and water throughout the administration). Blood samples were collected from the orbital venous plexus/jugular vein of rats at specified time points after administration (blood collection time points for the PO group: 0.167, 0.5, 1, 2, 4, 6, 8, and 24 h; for the IV group: 0.033, 0.167, 1, 2, 4, 6, 8, and 24 h). The concentration of compounds in plasma was detected by LC-MS/MS (AB SCIEX Qtrap4500). Data were analyzed using WinNonlin (version 5.2.1 Pharsight, Mountain View, CA) with a non-compartmental model to obtain PK parameters (including Cmax, C0, Tmax, AUClast, AUCinf, T1/2, etc.).
Table 3: Results of in vivo pharmacokinetic studies of compounds of the present disclosure in rats
The vehicle for the Po group compound was 5% DMSO + 5% ethanol + 60% PEG400 + 30% normal saline; the vehicle for the Iv group compound was 10% ethanol + 20% pure water + 70% PEG400 solution.

[3] = Table 1, read-out: LPAR1 inhibitory activity IC50

Row | SMILES | IC50 (LPAR1 receptor) [µM] | other results
1 | CCc1nc(-c2nnn(C)c2NC(=O)O[C@H](C)C(F)(F)CC)ccc1C#CC1(CC(=O)O)CC2(CC2)C1 [compound 504] | 0.0064 | –
2 | CCC[C@@H](C)OC(=O)Nc1c(-c2ccc(C#CC3(CC(=O)O)CC4(CC4)C3)c(C)n2)nnn1C [compound 478] | 0.0021 | –
3 | CCc1nc(-c2nnn(C)c2NC(=O)O[C@H](C)C(F)(F)CC)ccc1C#CC1(CC(=O)O)CC1 [compound 233] | 0.163 | –
4 | CCOC1CC(C#Cc2ccc(-c3nnn(C)c3NC(=O)O[C@H](C)C(F)(F)CC)nc2Cl)(CC(=O)O)C1 (some centres unmarked) [compound 467] | 0.0165 | –
5 | CCOc1ccnc(NCc2c(-c3ccc(C#CC4(CC(=O)O)CC4)c(C)n3)nnn2C)n1 [compound 118] | 0.0839 | –
6 | CCC(F)(F)[C@@H](C)OC(=O)Nc1c(-c2ccc(C#CC3(CC(=O)O)CC4(CC4)C3)c(C(F)(F)F)n2)nnn1C [compound 499] | 0.0115 | –
7 | CCOC1CC(C#Cc2ccc(-c3nnn(C)c3NC(=O)O[C@H](C)CC(C)(F)F)nc2C)(CC(=O)O)C1 (some centres unmarked) [compound 430] | 0.0632 | –
8 | CCC(F)(F)[C@@H](C)OC(=O)Nc1c(-c2ccc(C#CC3(CC(=O)O)CC4(CC4)C3)c(C)n2)nnn1C [compound 449] | 0.0056 | –
9 | CCC[C@@H](C)OC(=O)Nc1c(-c2ccc(C#CC3(CC(=O)O)CC(OCC)C3)c(C)n2)nnn1C (some centres unmarked) [compound 427] | 0.059 | –
10 | CCC(F)(F)[C@@H](C)OC(=O)Nc1c(-c2ccc(C#CC3(CC(=O)O)CC(OC)C3)c(F)n2)noc1C (some centres unmarked) [compound 491] | 0.0271 | –
11 | CCC(F)(F)[C@@H](C)OC(=O)Nc1c(C)noc1-c1ccc(C#CC2(CC(=O)O)CC2)c(C)n1 [compound 277] | 0.0266 | –
12 | Cc1nc(-c2nnn(C)c2NC(=O)O[C@H](C)CC(C)(F)F)ccc1C#CC1(CC(=O)O)CC2(CC2)C1 [compound 448] | 0.0068 | –
13 | CCC(F)(F)[C@@H](C)OC(=O)Nc1c(-c2ccc(C#CC3(CC(=O)O)CC(OC)C3)c(C(F)(F)F)n2)noc1C (some centres unmarked) [compound 493] | 0.0085 | –
14 | CCC(F)(F)[C@@H](C)OC(=O)Nc1c(C)noc1-c1ccc(C#C[C@@H]2CC(F)(F)C[C@H]2C(=O)O)c(C)n1 [compound 487] | 0.0352 | –
15 | Cc1nc(-c2nnn(C)c2Nc2cncc(OC(C)C)n2)ccc1C#CC1(CC(=O)O)CC1 [compound 125, 2-(1-((6-(5-((6-isopropoxypyrazin-2-yl)amino)-1-methyl-1/7-1,2,3-triazol-4-yl)-2-methylpyridin-3-yl)ethynyl)cyclopropyl)acetic acid] | – | IC50 ([1]; LPAR1 inhibitory activity IC50, Table 1): 0.0436 µM; AUC(0-t) ([2]; SD rats, Iv, 1 mg/kg): 1200 to 3000 ng·h/mL; half-life ([2]; SD rats, Iv, 1 mg/kg): 4.65 h; Cmax ([2]; SD rats, Iv, 1 mg/kg): 800 to 5000 ng/mL
16 | Cc1nc(-c2nnn(C)c2NC(=O)OC(C)CC2CC2)ccc1C#CC1CCC1C(=O)O (single isomer, unassigned) [248-A] | – | IC50 [1, 3]: 0.0181 µM; AUC(0-t) ([2]; SD rats, Iv, 1 mg/kg): 3000 to 5000 ng·h/mL; half-life ([2]; SD rats, Iv, 1 mg/kg): 7.72 h; Cmax ([2]; SD rats, Iv, 1 mg/kg): 800 to 5000 ng/mL; AUC(0-t) ([2]; SD rats, Po, 1 mg/kg): 5000 to 10000 ng·h/mL; half-life ([2]; SD rats, Po, 1 mg/kg): 5.33 h; Cmax ([2]; SD rats, Po, 1 mg/kg): 200 to 800 ng/mL
17 | Cc1nc(-c2nnn(C)c2NC(=O)O[C@H](C)C(F)(F)C(C)C)ccc1C#CC1(CC(=O)O)CC1 [compound 265] | – | IC50 [1, 3]: 0.0215 µM; half-life ([2]; male, SD, iv, 0.63 mg/kg): 7.81 h; half-life ([2]; male, SD, po, 1 mg/kg): 8.5 h; AUC(0-t) ([2]; male, SD rats, Iv, 0.63 mg/kg): 1200 to 3000 ng·h/mL; Cmax ([2]; male, SD rats, Iv, 0.63 mg/kg): 800 to 5000 ng/mL; AUC(0-t) ([2]; male, SD rats, Po, 1 mg/kg): 3000 to 5000 ng·h/mL; Cmax ([2]; male, SD rats, Po, 1 mg/kg): 200 to 800 ng/mL
18 | CCC(F)(F)[C@@H](C)OC(=O)Nc1c(-c2ccc(C#C[C@@H]3CC[C@H]3C(=O)O)c(C)n2)nnn1C (mixture of isomers) [212-B, trans-2-((6-(5-(((((R)-3,3-difluoropentan-2-yl)oxy)carbonyl)amino)-1-methyl-1H-1,2,3-triazol-4-yl)-2-methylpyridin-3-yl)ethynyl)cyclobutane-1-carboxylic acid] | – | IC50 [1, 3]: 0.0259 µM; half-life ([2]; male, SD, iv, 1 mg/kg): 7.43 h; half-life ([2]; male, SD, po, 1 mg/kg): 7.96 h; AUC(0-t) ([2]; male, SD rats, Iv, 1 mg/kg): 5000 to 10000 ng·h/mL; Cmax ([2]; male, SD rats, Iv, 1 mg/kg): 800 to 5000 ng/mL; AUC(0-t) ([2]; male, SD rats, Po, 1 mg/kg): 5000 to 10000 ng·h/mL; Cmax ([2]; male, SD rats, Po, 1 mg/kg): 800 to 5000 ng/mL

The next lines start with results.

Row | IC50 (LPAR1 receptor) [µM] | SMILES | other results
19 | 0.0072 | C[C@H](CC(C)(F)F)OC(=O)Nc1c(-c2ccc(C#CC3(CC(=O)O)CC4(CC4)C3)c(Cl)n2)nnn1C [compound 502] | –
20 | 0.0515 | CCC(F)(F)[C@@H](C)OC(=O)Nc1c(C)noc1-c1ccc(C#CC2(CC(=O)O)CC(OC)C2)c(C)n1 (some centres unmarked) [compound 488] | –
21 | 0.0086 | CCOC1CC(C#Cc2ccc(-c3nnn(C)c3NC(=O)O[C@H](C)C(F)(F)CC)nc2C(F)(F)F)(CC(=O)O)C1 (some centres unmarked) [compound 490] | –
22 | 0.195 | Cc1nc(-c2nnn(C)c2NC(=O)OC(C)C23CC(C2)C3)ccc1C#C[C@@H]1C[C@H]1C(=O)O (some centres unmarked) [compound 294] | –
23 | 0.0839 | Cc1nc(-c2onc(C)c2NC(=O)O[C@H](C)CC(C)(F)F)ccc1C#C[C@@H]1CC[C@H]1C(=O)O [compound 340] | –
24 | 0.0336 | CCC(F)(F)[C@@H](C)OC(=O)Nc1c(C)noc1-c1ccc(C#CC2(CC(=O)O)CC(OC)C2)c(Cl)n1 (some centres unmarked) [compound 471] | –
25 | 0.0141 | CCOC1CC(C#Cc2ccc(-c3nnn(C)c3NC(=O)O[C@H](C)C(F)(F)CC)nc2CC)(CC(=O)O)C1 (some centres unmarked) [compound 489] | –
26 | 0.0241 | CCC(F)(F)[C@@H](C)OC(=O)Nc1c(-c2ccc(C#CC3(CC(=O)O)CC(OC)C3)c(Cl)n2)noc1C (some centres unmarked) [compound 470] | –
27 | 0.205 | CCCN(C)C(=O)OCc1c(-c2ccc(C#CC3(CC(=O)O)CC3)c(C(F)(F)F)n2)nnn1C [compound 101] | –
28 | 0.134 | CCC[C@@H](C)OC(=O)Nc1c(-c2ccc(C#C[C@@H]3CC(F)(F)C[C@H]3C(=O)O)c(C)n2)nnn1C [compound 304] | –
29 | 0.19 | Cc1nc(-c2nnn(C)c2NC(=O)O[C@H](C)CC(C)C)ccc1C#C[C@@H]1C[C@H]1C(=O)O [compound 290] | –
30 | 0.0462 | CCC[C@@H](C)OC(=O)Nc1c(-c2ccc(C#CC3(CC(=O)O)CC(OC)C3)c(C)n2)nnn1C (single isomer, unassigned) [278-A] | –
31 | 0.117 | Cc1nc(-c2nnn(C)c2NC(=O)O[C@H](C)c2ccccc2Cl)ccc1C#C[C@@H]1C[C@H]1C(=O)O [compound 053] | –
32 | 0.0083 | CCCN(C)C(=O)OCc1c(-c2ccc(C#CC3(CC(=O)O)CC4(CC4)C3)c(C)n2)nnn1C [compound 115] | –
33 | 0.0196 | CCCCN(C)C(=O)OCc1c(-c2ccc(C#CC3(CC(=O)O)CC(OC)C3)c(C)n2)nnn1C (centres unmarked) [compound 113] | –
34 | 0.0523 | CCC(F)(F)[C@@H](C)OC(=O)Nc1c(C)noc1-c1ccc(C#C[C@@H]2CCC[C@H]2C(=O)O)c(C)n1 [compound 485] | –
35 | 0.167 | CCC(F)(F)[C@@H](C)OC(=O)Nc1c(-c2ccc(C#Cc3ccncc3C(=O)O)c(C)n2)nnn1C [compound 474, (R)-4-((6-(5-((((3,3-difluoropentan-2-yl)oxy)carbonyl)amino)-1-methyl-1H-1,2,3-triazol-4-yl)-2-methylpyridin-3-yl)ethynyl)nicotinic acid] | –
36 | 0.004 | CCC[C@@H](C)OC(=O)Nc1c(-c2ccc(C#CC3(CS(=O)(=O)O)CC4(CC4)C3)c(C)n2)nnn1C [compound 508, (R)-(5-((2-methyl-6-(1-methyl-5-(((pentan-2-yloxy)carbonyl)amino)-1H-1,2,3-triazol-4-yl)pyridin-3-yl)ethynyl)spiro[2.3]hexan-5-yl)methanesulfonic acid] | –
37 | 0.0265 | CCC(F)(F)[C@@H](C)OC(=O)Nc1c(-c2ccc(C#Cc3cc(C(F)(F)F)ncc3C(=O)O)c(C)n2)nnn1C [compound 513] | –
38 | 0.006 | C[C@H](CC(C)(F)F)OC(=O)Nc1c(-c2ccc(C#CC3(CC(=O)O)CC4(CC4)C3)c(C(F)(F)F)n2)nnn1C [compound 498] | –
